Assay results as given in BindingDB's records for doi:10.1111/cbdd.12530 (Chinese Academy of Sciences, 2015).

Molecular target: Dihydroorotate dehydrogenase (quinone), mitochondrial (Homo sapiens, UniProt Q02127)
Assay: DCIP-linked Assay
Settings: pH 8
Description: Recombinant human DHODH (final enzyme concentration between 20 and 60 nM in the assay well) were incubated at 37 °C in 50 mM Tris-HCl, 0.1% Triton X-100, 1 mM KCN, pH 8.0 with coenzyme Q10 (100 µM), and the tested compounds at different concentrations (final DMSO concentration 0.1% v/v). The reaction was initiatedby the addition of DHO (500 µM), and the reduction of DCIP (50 µM) was monitored through a decrease in absorbance at 650 nm.

Dihydroorotate dehydrogenase (quinone), mitochondrial, sequence (Q02127 whole entry): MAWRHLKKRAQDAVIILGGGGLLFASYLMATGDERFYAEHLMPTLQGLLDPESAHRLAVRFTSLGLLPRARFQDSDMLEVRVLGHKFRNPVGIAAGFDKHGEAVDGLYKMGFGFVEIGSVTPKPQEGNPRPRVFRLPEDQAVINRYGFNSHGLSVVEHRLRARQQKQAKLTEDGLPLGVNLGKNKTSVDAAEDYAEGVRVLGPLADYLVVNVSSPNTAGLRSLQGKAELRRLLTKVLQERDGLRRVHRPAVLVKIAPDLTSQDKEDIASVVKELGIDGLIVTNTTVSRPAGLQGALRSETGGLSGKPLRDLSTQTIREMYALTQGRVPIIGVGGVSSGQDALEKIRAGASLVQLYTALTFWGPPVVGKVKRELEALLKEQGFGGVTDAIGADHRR

| SMILES | IC50 [µM] |
| --- | --- |
| CC(C)[C@@H]1NC(=O)[C@@H]2CCCN2C1=O [Cyclo L-Pro-L-Val (Fr. 2-1)] | > 50 |
| O=C1N[C@@H](Cc2ccccc2)C(=O)N2C[C@H](O)C[C@@H]12 [Cyclo L-OH-Pro-L-Phe (Fr. 1-4)] | 0.773 |
| CC(C)C[C@@H]1NC(=O)[C@@H]2CCCN2C1=O [Cyclo L-Pro-L-Leu (Fr. 1-6)] | > 50 |
| CC[C@H](C)[C@@H]1NC(=O)[C@@H]2CCCN2C1=O [Cyclo L-Pro-L-Ile (Fr. 1-5)] | > 50 |
| O=C1N[C@@H](Cc2ccccc2)C(=O)N2CCC[C@@H]12 [Cyclo L-Pro-L-Phe (Fr. 2-2)] | > 50 |
